The values below come from PubChem BioAssay (NCI).

Among the test systems are SK-MEL-5 melanoma; SF-268 CNS; HCC-2998 colon; OVCAR-4 ovarian; OVCAR-8 ovarian; 786-0 renal; IGROV1 ovarian; SK-MEL-28 melanoma; RXF 393 renal; ACHN renal.
Holding throughout (test): growth of human tumour cells (NCI), 48 h

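Growth conditions: 96-well plates. Treatment: test compound, 48 hours, 5 concentrations. Analysis: linear interpolation between bracketing concentrations; unreached endpoints set to highest concentration. Abbreviation: GI50, concentration required for 50% inhibition of growth. TGI is the concentration that stops growth completely.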

Consider `O=C1C=CC(=O)c2c1ccc1c3ccccc3n(-c3cccc([N+](=O)[O-])c3)c21`, for which the TGI with SK-MEL-5 melanoma was greater than 10 µM; with SF-268 CNS it was greater than 10 µM; with HCC-2998 colon it was greater than 10 µM; in the experiment on OVCAR-4 ovarian, greater than 5.95 µM; in the experiment on OVCAR-8 ovarian it was greater than 8.25 µM; in the experiment on 786-0 renal it was 3.58 µM. Also, the TGI in the experiment on IGROV1 ovarian is greater than 10 µM; with SK-MEL-28 melanoma, greater than 6.36 µM; in the experiment with RXF 393 renal, 4.48 µM; in the experiment on ACHN renal it was 3.36 µM.

`Cc1cc(S(=O)(=O)O)c(NC(=O)C(=O)Cc2cc(=O)oc3cc(O)ccc23)cc1Cl`: the TGI with SK-MEL-5 melanoma, in the experiment on SF-268 CNS, in the experiment with HCC-2998 colon, in the experiment on OVCAR-4 ovarian, in the experiment on OVCAR-8 ovarian and with 786-0 renal was greater than 100 µM in each case. Further, the TGI in the experiment on IGROV1 ovarian, with SK-MEL-28 melanoma, in the experiment with RXF 393 renal and in the experiment with ACHN renal was greater than 100 µM throughout.

As to `CCC1CCc2c(c(=O)oc3c2cc(OC)c2cccc(OC)c23)C1` (centres undefined), the TGI was 80.9 µM in the experiment with SK-MEL-5 melanoma; greater than 100 µM in the experiment on SF-268 CNS; greater than 100 µM with HCC-2998 colon; greater than 100 µM with OVCAR-4 ovarian; greater than 100 µM in the experiment with OVCAR-8 ovarian; greater than 100 µM in the experiment on 786-0 renal. In addition, the TGI with IGROV1 ovarian is greater than 100 µM; in the experiment on SK-MEL-28 melanoma, greater than 100 µM; in the experiment with RXF 393 renal, 89.9 µM; with ACHN renal it was greater than 100 µM.

Take `COc1cc(OC)c(/C=C/c2c3ccccc3cc[n+]2C)c(OC)c1`: the GI50 in the experiment on SK-MEL-5 melanoma was 0.642 µM; in the experiment with SF-268 CNS, 2.54 µM; in the experiment on HCC-2998 colon, 1.65 µM; in the experiment with OVCAR-4 ovarian, 1.15 µM; in the experiment with OVCAR-8 ovarian, 2.27 µM; with 786-0 renal it was 7.37 µM. Also, the GI50 was 2.32 µM in the experiment on IGROV1 ovarian, 2.34 µM in the experiment with SK-MEL-28 melanoma, 4.99 µM in the experiment with RXF 393 renal and 10.9 µM in the experiment on ACHN renal. In addition, the TGI in the experiment on SK-MEL-5 melanoma was 2.21 µM; in the experiment with SF-268 CNS it was 19.3 µM; in the experiment on HCC-2998 colon it was 14.7 µM; in the experiment with OVCAR-4 ovarian it was greater than 100 µM; with OVCAR-8 ovarian, 12.4 µM; in the experiment with 786-0 renal, greater than 100 µM. The TGI with IGROV1 ovarian was 19.8 µM; with SK-MEL-28 melanoma, 13.2 µM; with RXF 393 renal, greater than 51.3 µM; in the experiment with ACHN renal, greater than 100 µM.

Consider `Cn1cc(C2=C(c3cccc(Br)c3)C(=O)NC2=O)c2ccccc21`, for which the GI50 with SK-MEL-5 melanoma is 6.23 µM; with SF-268 CNS it was 15.5 µM; in the experiment with HCC-2998 colon, greater than 16 µM; in the experiment on OVCAR-4 ovarian, 12.6 µM; in the experiment with OVCAR-8 ovarian it was 12.6 µM; in the experiment on 786-0 renal it was 12.1 µM. Also, the GI50 in the experiment with IGROV1 ovarian is 11 µM; in the experiment on SK-MEL-28 melanoma, greater than 22.9 µM; with RXF 393 renal it was 8.3 µM; in the experiment with ACHN renal, 14.5 µM. Besides, the TGI in the experiment with SK-MEL-5 melanoma is 22.3 µM; with SF-268 CNS, greater than 25 µM; in the experiment on HCC-2998 colon, greater than 25 µM; in the experiment with OVCAR-4 ovarian, greater than 25 µM; in the experiment on OVCAR-8 ovarian, greater than 25 µM; in the experiment on 786-0 renal it was greater than 25 µM. Moreover, the TGI in the experiment on IGROV1 ovarian, in the experiment on SK-MEL-28 melanoma, in the experiment on RXF 393 renal and in the experiment on ACHN renal was greater than 25 µM in each case.

Consider `O=C1OCC2C1C1c3ccccc3C(O)c3ccccc3C21` (centres undefined), for which the TGI in the experiment with SK-MEL-5 melanoma, in the experiment on SF-268 CNS, in the experiment with HCC-2998 colon, in the experiment with OVCAR-4 ovarian, in the experiment with OVCAR-8 ovarian and with 786-0 renal was greater than 100 µM each time. The TGI in the experiment on IGROV1 ovarian, in the experiment with SK-MEL-28 melanoma, with RXF 393 renal and with ACHN renal was greater than 100 µM throughout.

As to `CC1(C)CC(=O)C(C=NC(=O)c2ccncc2)=C(O)C1`, the TGI in the experiment on SK-MEL-5 melanoma, in the experiment on SF-268 CNS, with HCC-2998 colon, in the experiment on OVCAR-4 ovarian, with OVCAR-8 ovarian and with 786-0 renal was greater than 100 µM throughout. The TGI in the experiment with IGROV1 ovarian, in the experiment with SK-MEL-28 melanoma, with RXF 393 renal and in the experiment on ACHN renal was greater than 100 µM throughout.

Turning to `CCN1C(=O)N(CC)C2C1NN=c1s/c(=C3\C(=O)N(CC(C)(C)C)c4ccccc43)c(=O)n12` (centres undefined), the GI50 in the experiment with SK-MEL-5 melanoma was 2.11 µM; in the experiment on SF-268 CNS, 4.8 µM; with HCC-2998 colon, 3.4 µM; in the experiment on OVCAR-4 ovarian it was 7.77 µM; in the experiment on OVCAR-8 ovarian, 4.67 µM; in the experiment on 786-0 renal it was 5.65 µM. Further, the GI50 is 3.91 µM in the experiment on IGROV1 ovarian, 6.94 µM with SK-MEL-28 melanoma, 1.83 µM with RXF 393 renal and 4.04 µM with ACHN renal. Also, the TGI with SK-MEL-5 melanoma is 5.21 µM; in the experiment on SF-268 CNS, 32.1 µM; in the experiment with HCC-2998 colon it was 13.8 µM; in the experiment on OVCAR-4 ovarian it was 66.6 µM; in the experiment with OVCAR-8 ovarian it was greater than 100 µM; with 786-0 renal, 27.8 µM. For the same compound, the TGI worked out at 23.6 µM with IGROV1 ovarian, 22 µM in the experiment with SK-MEL-28 melanoma, 12.8 µM in the experiment with RXF 393 renal and 18.1 µM in the experiment on ACHN renal.

Turning to `CCOC(=O)/C=C(/C)Sc1cc(O)c2ccccc2c1O`, the GI50 is 1.59 µM in the experiment with SK-MEL-5 melanoma; 4.24 µM in the experiment on SF-268 CNS; 16.2 µM in the experiment with HCC-2998 colon; 3.36 µM with OVCAR-4 ovarian; 2.99 µM in the experiment with OVCAR-8 ovarian; 15.2 µM in the experiment on 786-0 renal. For the same compound, the GI50 with IGROV1 ovarian was 2.26 µM; in the experiment on SK-MEL-28 melanoma, 2.34 µM; in the experiment on RXF 393 renal, 2.28 µM; in the experiment with ACHN renal, 2.78 µM. The TGI in the experiment on SK-MEL-5 melanoma was 2.99 µM; with SF-268 CNS it was 14.6 µM; in the experiment on HCC-2998 colon, 31.1 µM; with OVCAR-4 ovarian it was 13.2 µM; in the experiment with OVCAR-8 ovarian, 12.9 µM; with 786-0 renal it was 28.6 µM. Further, the TGI with IGROV1 ovarian was 17.8 µM; with SK-MEL-28 melanoma, 5.45 µM; in the experiment with RXF 393 renal, 6.34 µM; with ACHN renal, 9.82 µM.

Consider `CCN(Cc1ccccc1C)c1ccc(CO)c(Cl)c1`, for which the GI50 with SK-MEL-5 melanoma was 4.77 µM; with SF-268 CNS, 16.1 µM; in the experiment on HCC-2998 colon it was 14.4 µM; in the experiment on OVCAR-4 ovarian it was 1.26 µM; with OVCAR-8 ovarian, 15.8 µM; in the experiment with 786-0 renal, 15 µM. Further, the GI50 was 13.2 µM with SK-MEL-28 melanoma, 6.3 µM with RXF 393 renal and 15.7 µM in the experiment on ACHN renal. Besides, the TGI with SK-MEL-5 melanoma is 11.9 µM; with SF-268 CNS, 31.8 µM; in the experiment with HCC-2998 colon it was 30.6 µM; in the experiment with OVCAR-4 ovarian it was 11.8 µM; in the experiment on OVCAR-8 ovarian it was 48.9 µM; in the experiment with 786-0 renal, 30.9 µM. Also, the TGI in the experiment with IGROV1 ovarian was 0.747 µM; in the experiment on SK-MEL-28 melanoma, 27.8 µM; in the experiment with RXF 393 renal, 23.8 µM; in the experiment with ACHN renal it was 39.4 µM.
